Where two headings read alike, the source gives them in different places.
Tests used:
[1] = target: T1, human TRPM5 (Homo sapiens, UniProt Q9NZQ8); assay: QPatch automated patch clamp on TRPM5-expressing HEK293 cells; format: cell-based; conditions: hsTRPM5-expressing HEK293 cells
T1 sequence (Q9NZQ8 1-1165): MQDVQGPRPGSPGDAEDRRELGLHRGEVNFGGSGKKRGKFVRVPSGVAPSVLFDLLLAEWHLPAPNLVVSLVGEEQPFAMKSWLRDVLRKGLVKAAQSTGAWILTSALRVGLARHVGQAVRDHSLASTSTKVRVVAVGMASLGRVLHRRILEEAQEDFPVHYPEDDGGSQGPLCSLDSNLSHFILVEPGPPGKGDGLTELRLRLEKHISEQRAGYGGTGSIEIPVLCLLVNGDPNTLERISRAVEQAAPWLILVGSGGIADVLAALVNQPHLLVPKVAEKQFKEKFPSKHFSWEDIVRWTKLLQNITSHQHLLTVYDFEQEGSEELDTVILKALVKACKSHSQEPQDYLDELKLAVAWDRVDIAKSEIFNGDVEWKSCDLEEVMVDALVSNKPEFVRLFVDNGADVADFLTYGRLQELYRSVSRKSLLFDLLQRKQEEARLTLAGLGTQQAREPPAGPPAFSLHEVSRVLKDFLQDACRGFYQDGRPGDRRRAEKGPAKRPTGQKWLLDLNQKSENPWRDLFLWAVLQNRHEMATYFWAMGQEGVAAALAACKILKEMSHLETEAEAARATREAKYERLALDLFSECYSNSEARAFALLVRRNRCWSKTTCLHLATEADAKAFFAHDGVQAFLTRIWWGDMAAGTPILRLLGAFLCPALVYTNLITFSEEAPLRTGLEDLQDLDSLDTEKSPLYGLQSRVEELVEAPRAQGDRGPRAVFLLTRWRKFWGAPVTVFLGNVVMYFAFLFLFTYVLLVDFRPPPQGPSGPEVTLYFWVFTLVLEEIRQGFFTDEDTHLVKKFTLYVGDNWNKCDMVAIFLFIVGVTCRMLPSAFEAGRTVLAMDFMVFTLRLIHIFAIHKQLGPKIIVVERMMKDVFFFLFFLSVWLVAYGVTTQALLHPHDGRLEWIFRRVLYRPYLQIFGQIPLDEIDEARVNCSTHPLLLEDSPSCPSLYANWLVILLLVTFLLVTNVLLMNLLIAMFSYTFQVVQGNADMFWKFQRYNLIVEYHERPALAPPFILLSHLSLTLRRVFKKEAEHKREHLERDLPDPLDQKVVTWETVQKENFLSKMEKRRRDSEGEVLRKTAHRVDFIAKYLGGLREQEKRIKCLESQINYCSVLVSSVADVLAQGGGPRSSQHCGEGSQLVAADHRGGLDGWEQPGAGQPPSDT
Text: The counter screening phase involved the inclusion of hsTRPM5-expressing HEK293 cells, as closest homologue, and the parental HEK293 cell line to evaluate selectivity. […] Based on categorization of biological activity, mass spectrometry quality control, and aspects of medicinal chemistry, we prioritized 144 selective hsTRPM4 compounds. These compounds were then subjected to automated patch clamp electrophysiology measurements (QPatch[58]) to evaluate their activity profiles and IC50 values (Figures 1A, S1, and S2).
(§1) QPatchHTX, an automated electrophysiology platform, was used in single hole mode. One day before use human TRPM4- or TRPM5-expressing HEK293 cells were seeded in a T75 flask at a density of 53k cells per cm^2 and at passages < 23. For QPatch assays, cells were harvested and re-suspended in SFM (Gibco, 11686029). The extracellular solution was (in mM): CaCl2 (7), MgCl2 (2), KCl (5), HEPES (10), NaCl (70), NMDG (70); pH 7.4 with NaOH. The intracellular solution was (in mM): HEPES (10), NMDG (100), NaCl (50), EGTA (20), MgCl2 (1), CaCl2 (21); pH 7.2 with HCl. After break-in, channels were consistently open and current through the channels could be observed at a voltage ramp from –100 mV to +100 mV over 500 ms. This protocol was repeated every 7 seconds. After saline and vehicle application, the channel was desensitized and residual current was used as baseline. FFA was used as reference compound and applied cumulatively with each concentration incubating at a minimum of 20 voltage protocol runs (140 seconds) with the current after addition of FFA being calculated as full block. […] Each compound was measured at least 3 time independently.

[2] = In vivo pharmacokinetics after single i.p. or i.v. dose; conditions: female, C57BL/6J, mouse
Protocol: Next, to assess in vivo availability of the Series 1–3 compounds, we evaluated drug metabolism and pharmacokinetics (DMPK). We measured compound concentrations in plasma, heart, and brain at several time points after intraperitoneal (i.p.) or intravenous (i.v.) single-dose injections.
Half-life and bioavailability were calculated by noncompartmental analysis using the R package PK[84] (v1.3-6).

[3] = Microsome clearance (human); format: in vitro ADME; conditions: human liver microsomes, 45 min, NADPH, read-out: Microsomes (h) clearance (converted)
Protocol: (§2) Human or mouse liver microsomes were incubated with the test compound at a concentration of 1 μM for 45 min in the presence of cofactor (NADPH in excess). Samples were collected at various time points, and % remaining of test compound was determined using mass spectrometry (LC-MS/MS) to calculate hepatic clearance rate (L/h/kg).

[4] = target: T2, CYP2D6 (Homo sapiens, UniProt P10635); assay: CYP inhibition assay 2D6; format: in vitro ADME
T2 construct: purchased BD Gentest
Protocol: (§3) The half-maximal inhibitory concentration (IC50) for cytochrome P450 (CYP) enzymes was determined using an in vitro enzyme inhibition assay. Recombinant CYP enzymes or human liver microsomes from BD Gentest, in 0.1 M phosphate buffer pH 7.4, containing native CYP enzymes were incubated with the test compound at various concentrations (1, 3, 10 and 30 μM) and containing 0.5% DMSO and 0.1% BSA final concentrations. 1 mM of NADPH cofactor was added and the reaction was started by a rapid increase of temperature until 37°C.

[5] = Microsome clearance (mouse); format: in vitro ADME; conditions: mouse liver microsomes, 45 min, NADPH
Protocol: as §2

[6] = target: T3, CYP3A4 (Homo sapiens, UniProt P08684); assay: CYP inhibition assay 3A4; format: in vitro ADME
T3 construct: purchased BD Gentest
Protocol: as §3

[7] = target: potassium channel human Ether-a-go-go Related Gene (hERG) (Homo sapiens, UniProt Q12809); assay: hERG channel inhibition; format: cell-based
Text: We next used in vitro assays to test absorption, distribution, metabolism, excretion and toxicity (ADMET) parameters for selected compounds. We assessed compound absorption using parallel artificial membrane permeability (PAMPA) and Caco-2 cell permeability assays (cut-off criterion >2 × 10^−6 cm s^−1). […] To assess potential off-target activity of our compounds that could be relevant for safety in humans, we conducted comprehensive in vitro pharmacology using the commercially available and widely used SafetyScreen44 interaction panel[60] covering eight protein families.

[8] = Caco-2 permeability assay; format: in vitro ADME; conditions: human, heading: Caco-2 perm., direction not given
Protocol: Caco-2 permeability was evaluated using a cell-based assay with Caco-2 cells cultured on permeable membrane inserts. The test compound was added at 10 μM to the apical (donor) compartment, and samples were collected from the basolateral (receiver) compartment at 120 min. The test compound was also added at 10 μM to the basolateral (donor) compartment, and samples were collected from the apical (receiver) compartment at 120 min. The amount of the compound in both compartments was measured using mass spectrometry (LC-MS/MS). The permeability coefficient (Papp, nm/s) apical to basolateral and basolateral to apical, and an efflux ratio were calculated.

[9] = target: T4, CYP 2C19 (Homo sapiens, UniProt P33261); assay: CYP inhibition assay 2C19; format: in vitro ADME
T4 construct: purchased BD Gentest
Protocol: as §3

[10] = Parallel Artificial Membrane Permeability Assay (PAMPA); format: in vitro ADME; conditions: pH not given; for Papp at 16 h, 200 μM: PAMPA, read-out: PAMPA perm.
Protocol: Parallel Artificial Membrane Permeability Assay (PAMPA) was performed using artificial lipid membrane layers to assess passive permeability of the test compound. Test compounds were diluted to 200 μM in system buffer at pH 5.0, 6.2 and 7.4. The solutions were filtered and 150 μL transferred to a High Sensitivity 96 well UV plate. This was analysed by UV as the reference plate. A 200 μL sample of the 200 μM solution was transferred to the ‘donor’ plate of the PAMPA pIon sandwich plate system. 200 μL of acceptor sink buffer was transferred to the ‘acceptor’ plate which had been previously treated with GIT-O lipid solution across the well filter. Donor and acceptor plates were sandwiched and kept in a humid environment at room temperature for 16 hours. On completion of the incubation the donor and acceptor plates were separated. 150 μL of solution was transferred from each of the donor and acceptor PAMPA sandwich plates into High Sensitivity 96 well UV plates for analysis by UV. at different time points. The concentration of the compound in the acceptor compartment was determined using mass spectrometry. The permeability coefficient (Papp) was calculated based on the rate of appearance of the compound in the acceptor compartment (nm/s).

[11] = target: human TRPM4 (Homo sapiens, UniProt Q8TD43); assay: QPatch automated patch clamp on TRPM4-expressing HEK293 cells; format: cell-based; conditions: hsTRPM4-expressing HEK293 cells
Protocol: as §1, with “For QPatch assays, cells were harvested and re-suspended in SFM (Gibco, 11686029).” left out, “After break-in, channels were consistently open and current through the channels could be observed at a voltage ramp from –100 mV to +100 mV over 500 ms.” left out, “After saline and vehicle application, the channel was desensitized and residual current was used as baseline.” left out

T2 sequence (P10635 whole entry): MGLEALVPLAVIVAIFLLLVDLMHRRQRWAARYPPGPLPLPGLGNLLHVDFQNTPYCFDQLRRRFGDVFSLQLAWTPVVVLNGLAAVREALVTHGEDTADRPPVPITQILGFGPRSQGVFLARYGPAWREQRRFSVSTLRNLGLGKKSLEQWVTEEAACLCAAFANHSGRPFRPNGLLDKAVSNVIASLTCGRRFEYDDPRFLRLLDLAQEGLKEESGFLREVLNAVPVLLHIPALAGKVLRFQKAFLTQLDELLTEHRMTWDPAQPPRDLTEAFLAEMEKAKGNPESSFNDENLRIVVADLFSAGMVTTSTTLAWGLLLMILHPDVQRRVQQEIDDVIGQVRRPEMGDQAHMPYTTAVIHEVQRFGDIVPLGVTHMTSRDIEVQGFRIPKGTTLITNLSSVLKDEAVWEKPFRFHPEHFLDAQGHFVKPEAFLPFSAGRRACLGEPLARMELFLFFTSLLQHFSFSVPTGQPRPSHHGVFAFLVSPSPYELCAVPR
Chain of human TRPM4 (Q8TD43 whole entry): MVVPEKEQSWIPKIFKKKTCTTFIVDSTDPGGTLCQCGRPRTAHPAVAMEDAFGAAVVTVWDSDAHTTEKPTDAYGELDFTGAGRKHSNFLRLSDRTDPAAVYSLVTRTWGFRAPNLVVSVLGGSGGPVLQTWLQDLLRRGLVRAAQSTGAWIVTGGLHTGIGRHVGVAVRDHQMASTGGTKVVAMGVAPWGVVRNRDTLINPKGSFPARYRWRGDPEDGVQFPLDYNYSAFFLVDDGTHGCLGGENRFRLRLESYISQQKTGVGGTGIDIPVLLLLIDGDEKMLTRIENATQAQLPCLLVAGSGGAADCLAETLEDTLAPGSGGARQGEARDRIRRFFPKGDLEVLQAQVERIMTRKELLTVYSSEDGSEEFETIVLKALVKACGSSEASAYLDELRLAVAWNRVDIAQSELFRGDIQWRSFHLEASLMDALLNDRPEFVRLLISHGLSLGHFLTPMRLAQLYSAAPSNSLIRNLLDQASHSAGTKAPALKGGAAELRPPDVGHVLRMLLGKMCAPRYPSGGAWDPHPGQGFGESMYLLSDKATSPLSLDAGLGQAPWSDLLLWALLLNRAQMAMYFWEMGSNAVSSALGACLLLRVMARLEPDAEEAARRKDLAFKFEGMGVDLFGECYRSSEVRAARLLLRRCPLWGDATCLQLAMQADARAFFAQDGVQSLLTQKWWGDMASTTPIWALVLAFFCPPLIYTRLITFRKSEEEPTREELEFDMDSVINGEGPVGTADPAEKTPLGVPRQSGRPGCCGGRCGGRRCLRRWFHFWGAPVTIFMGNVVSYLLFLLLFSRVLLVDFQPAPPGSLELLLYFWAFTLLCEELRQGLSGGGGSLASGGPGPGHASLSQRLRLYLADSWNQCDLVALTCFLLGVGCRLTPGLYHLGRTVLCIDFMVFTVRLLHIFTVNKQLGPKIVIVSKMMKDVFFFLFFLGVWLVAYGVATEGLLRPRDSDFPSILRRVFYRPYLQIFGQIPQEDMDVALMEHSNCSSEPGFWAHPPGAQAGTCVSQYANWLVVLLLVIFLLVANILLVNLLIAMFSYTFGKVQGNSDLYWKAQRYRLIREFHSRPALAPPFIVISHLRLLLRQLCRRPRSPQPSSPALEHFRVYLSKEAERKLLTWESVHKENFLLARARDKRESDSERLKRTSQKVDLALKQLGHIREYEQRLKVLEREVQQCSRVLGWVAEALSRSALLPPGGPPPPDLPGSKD
T3 sequence (P08684 whole entry): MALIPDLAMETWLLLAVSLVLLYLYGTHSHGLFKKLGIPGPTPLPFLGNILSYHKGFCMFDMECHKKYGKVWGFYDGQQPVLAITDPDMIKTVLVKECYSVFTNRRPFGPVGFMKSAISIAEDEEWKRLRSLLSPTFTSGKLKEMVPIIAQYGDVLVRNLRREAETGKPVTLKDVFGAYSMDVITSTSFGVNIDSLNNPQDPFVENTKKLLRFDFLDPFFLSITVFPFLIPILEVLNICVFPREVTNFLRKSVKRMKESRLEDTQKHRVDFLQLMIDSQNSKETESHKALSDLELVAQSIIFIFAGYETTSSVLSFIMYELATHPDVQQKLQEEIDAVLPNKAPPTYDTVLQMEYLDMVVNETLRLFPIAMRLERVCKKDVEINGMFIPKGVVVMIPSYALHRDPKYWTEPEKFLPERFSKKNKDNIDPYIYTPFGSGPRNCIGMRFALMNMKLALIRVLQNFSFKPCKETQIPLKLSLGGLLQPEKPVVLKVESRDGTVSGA
T4 sequence (P33261 whole entry): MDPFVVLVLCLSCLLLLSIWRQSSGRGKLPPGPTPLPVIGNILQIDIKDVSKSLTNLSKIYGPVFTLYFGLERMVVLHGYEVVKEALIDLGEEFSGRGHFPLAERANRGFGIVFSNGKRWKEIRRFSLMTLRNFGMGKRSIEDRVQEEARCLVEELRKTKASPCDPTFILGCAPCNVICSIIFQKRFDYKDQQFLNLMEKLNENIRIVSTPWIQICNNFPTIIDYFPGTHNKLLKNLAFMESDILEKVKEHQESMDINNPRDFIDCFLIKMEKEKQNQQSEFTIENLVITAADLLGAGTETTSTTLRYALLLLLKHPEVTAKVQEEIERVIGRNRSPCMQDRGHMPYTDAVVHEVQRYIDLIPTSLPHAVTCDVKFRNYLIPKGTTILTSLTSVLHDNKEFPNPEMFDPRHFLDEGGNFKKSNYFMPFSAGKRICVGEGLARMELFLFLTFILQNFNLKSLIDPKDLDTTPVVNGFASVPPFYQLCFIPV
Chain of potassium channel human Ether-a-go-go Related Gene (hERG) (Q12809 whole entry): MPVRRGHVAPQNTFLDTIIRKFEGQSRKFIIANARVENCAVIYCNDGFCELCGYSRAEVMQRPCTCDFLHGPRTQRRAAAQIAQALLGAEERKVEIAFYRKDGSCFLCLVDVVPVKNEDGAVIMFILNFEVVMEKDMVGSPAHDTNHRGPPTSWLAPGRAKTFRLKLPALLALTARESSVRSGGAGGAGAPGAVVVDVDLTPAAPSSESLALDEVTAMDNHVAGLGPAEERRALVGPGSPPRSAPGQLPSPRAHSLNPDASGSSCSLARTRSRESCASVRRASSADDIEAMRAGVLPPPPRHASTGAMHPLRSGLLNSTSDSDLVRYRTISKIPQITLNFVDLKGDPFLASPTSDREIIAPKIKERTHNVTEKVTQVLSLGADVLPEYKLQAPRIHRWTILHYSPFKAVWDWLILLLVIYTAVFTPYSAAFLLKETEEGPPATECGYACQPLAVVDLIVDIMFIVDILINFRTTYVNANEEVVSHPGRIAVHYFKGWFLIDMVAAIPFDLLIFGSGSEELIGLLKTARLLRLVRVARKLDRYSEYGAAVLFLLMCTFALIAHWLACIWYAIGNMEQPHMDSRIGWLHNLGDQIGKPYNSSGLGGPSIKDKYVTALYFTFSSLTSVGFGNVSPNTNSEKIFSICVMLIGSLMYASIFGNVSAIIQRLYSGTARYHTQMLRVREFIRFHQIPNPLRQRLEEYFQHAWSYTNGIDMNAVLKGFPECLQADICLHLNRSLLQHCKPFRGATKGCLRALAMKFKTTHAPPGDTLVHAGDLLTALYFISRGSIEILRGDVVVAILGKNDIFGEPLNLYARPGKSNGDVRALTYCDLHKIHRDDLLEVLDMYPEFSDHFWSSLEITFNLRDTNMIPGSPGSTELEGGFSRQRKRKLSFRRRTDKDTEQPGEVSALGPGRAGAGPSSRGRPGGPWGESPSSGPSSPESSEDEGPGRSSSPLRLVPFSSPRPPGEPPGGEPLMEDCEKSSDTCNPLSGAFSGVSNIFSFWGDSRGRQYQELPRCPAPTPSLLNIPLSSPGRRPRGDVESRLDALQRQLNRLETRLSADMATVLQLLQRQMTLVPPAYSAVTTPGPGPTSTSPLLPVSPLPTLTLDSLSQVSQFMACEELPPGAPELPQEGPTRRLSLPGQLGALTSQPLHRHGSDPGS

| Structure (SMILES) | IC50 [1] [µM] | CLint scaled at 1 μM [3] [mL/min/kg] | IC50 [4] [µM] | CLint scaled at 1 μM [5] [mL/min/kg] | Papp at 16 h, 200 μM [10] [×10⁻⁶ cm/s] | IC50 [11] [µM] | further results |
| --- | --- | --- | --- | --- | --- | --- | --- |
| Cc1ccc(-c2ccccc2NCc2nc3ccccc3o2)s1 [CMP354] | > 10 | 460 | > 50 | > 900 |  |  | half-life ([2]; brain, ip, read-out: Brain half-life (converted)): 2.6 h; half-life ([2]; brain, iv, read-out: Brain half-life (converted)): 1.6 h; half-life ([2]; heart, ip, read-out: Heart half-life (converted)): 4.3 h; half-life ([2]; heart, iv, read-out: Heart half-life (converted)): 4.8 h; half-life ([2]; plasma, ip, read-out: Plasma half-life (converted)): 4.5 h; half-life ([2]; plasma, iv, read-out: Plasma half-life (converted)): 1.5 h; IC50 ([6]; TDI, read-out: Cyp IC50 TDI 3A4): > 50 µM; IC50 ([6]; read-out: Cyp IC50 3A4): > 50 µM; IC50 [7]: > 10 µM |
| CNc1cccc(-c2ccccc2NCc2nc3ccccc3o2)c1 [CMP462] | > 30 | 302 | > 50 | 900 | 25 |  | Papp at 120 min, 10 μM [8]: 23.3 ×10⁻⁶ cm/s; IC50 [9]: 4 µM |
| Nc1cccc(-c2ccccc2NCc2nc3ccccc3o2)c1 [CMP465] | > 30 | 216 | > 50 | 393 | 37.9 |  | Papp at 120 min, 10 μM [8]: 18.9 ×10⁻⁶ cm/s |
| CNc1ccc(-c2ccccc2NCc2nc3ccccc3o2)cc1 [CMP470] | > 30 | 225 | > 50 | 900 | 22 |  |  |
| CCCNc1cccc(-c2ccccc2NCc2nc3ccccc3o2)c1 [CMP471] | > 30 |  |  |  |  |  | IC50 ([4]; human, pH 7.4): > 50 µM; IC50 ([6]; human, pH 7.4): > 50 µM; PAMPA perm. [10]: no detection |
| O=C(CCc1ccccc1)Nc1ccc(Cl)cc1C(=O)O [CMP493] | > 30 |  |  |  |  | 0.53 |  |
| O=C(CCc1ccccc1)Nc1ccc(C(F)(F)F)cc1C(=O)O [CMP502] | > 30 |  |  |  |  | 0.6 |  |
| O=C(CCc1ccccc1Cl)Nc1ccc(Br)cc1C(=O)O [CMP510] | 19 |  |  |  |  | 0.72 |  |
| O=C(CCc1cccc(Cl)c1)Nc1ccc(Br)cc1C(=O)O [CMP512] | 0.94 |  |  |  |  | 0.41 |  |
